# Values of other authors in patent US20240016170A1, “A ZINC FORTIFIED TEA COMPOSITION” (EKATERRA TEA MANUFACTURING USA LLC, priority 2020, published 2024).
# Settings: water at 25° C.
structure (smiles),measurement,value
[O]=[Zn] [zinc oxide],solubility,0.0004 g/100 g water
